# Measured values from ChEMBL document CHEMBL1140347, “Peptidyl vinyl ester derivatives: new class of selective inhibitors of proteasome trypsin-like activity” (J Med Chem, 2005).
# Assays:
# [1] = Half-life in culture medium (RPMI) in the presence of 10% foetal calf serum by incubation at […]; assay type: ADME; conditions: cattle, culture medium (RPMI) with 10% foetal calf serum
# [2] = Half-life in human plasma by incubation at […]; assay type: ADME, cell-free
# Proteasome [3] = assay: Inhibition of chymotrypsin like activity of the proteasome purified from lymphoblastoid cell lines (in vitro); assay type: subcellular
# Proteasome [4] = assay: Inhibition of trypsin like activity of the proteasome purified from lymphoblastoid cell lines (in vitro); assay type: subcellular
# Proteasome [5] = assay: Inhibition of post-acidic-like (PGPH) activity of the proteasome purified from lymphoblastoid cell lines (in vitro)
# Proteasome [6] = assay: Inhibition of trypsin like activity of the proteasome in colon carcinoma cell lines COO115; assay type: subcellular
# Proteasome [7] = assay: Inhibition of trypsin like activity of the proteasome in colon carcinoma cell lines HCT116; assay type: subcellular
SMILES,half-life [1] [h],half-life [2] [h],IC50 (Proteasome [3]) [nM],IC50 (Proteasome [4]) [nM],IC50 (Proteasome [5]) [nM],IC50 (Proteasome [6]) [nM],IC50 (Proteasome [7]) [nM]
CCOC(=O)/C=C/[C@H](CC(C)C)NC(=O)[C@H](CO)NC(=O)[C@@H](NC(=O)C1=CCCNC1)C(C)C,> 6,> 6,6540,380,> 10000,–,–
CCOC(=O)/C=C/[C@H](CC(C)C)NC(=O)[C@H](CC(C)C)NC(=O)[C@H](CC(C)C)NC(=O)OCc1ccccc1,> 6,4.87,2450,280,> 10000,–,–
CCOC(=O)/C=C/[C@H](CC(C)C)NC(=O)[C@H](CO)NC(=O)[C@@H](NC(=O)C1=CCCN(C(=O)OC(C)(C)C)C1)C(C)C,> 6,2.57,> 10000,110,> 10000,–,–
CCOC(=O)/C=C/[C@H](CC(C)C)NC(=O)[C@H](CO)NC(=O)[C@@H](NC(=O)OCc1ccccc1)C(C)C,> 6,3.97,> 10000,71,> 10000,–,–
CCOC(=O)/C=C/[C@H](CC(C)C)NC(=O)[C@H](CO)NC(=O)[C@@H](NC(=O)c1cccc(O)c1C)C(C)C,> 6,> 6,> 10000,33,> 10000,–,33

# The next lines start with the values.
half-life [1] [h],half-life [2] [h],IC50 (Proteasome [3]) [nM],IC50 (Proteasome [4]) [nM],IC50 (Proteasome [5]) [nM],IC50 (Proteasome [6]) [nM],IC50 (Proteasome [7]) [nM],SMILES
> 6,> 6,4210,41,> 10000,41,–,CCOC(=O)/C=C/[C@H](CC(C)C)NC(=O)[C@H](CC(C)C)NC(=O)[C@H](CC(C)C)NC(=O)c1cccc(O)c1C
> 6,> 6,860,210,> 10000,–,–,CCOC(=O)/C=C/[C@H](CC(C)C)NC(=O)[C@H](CC(C)C)NC(=O)[C@H](CC(C)C)NC(=O)C1=CCCNC1
> 6,3.3,4360,190,> 10000,–,–,CCOC(=O)/C=C/[C@H](CC(C)C)NC(=O)[C@H](CC(C)C)NC(=O)[C@H](CC(C)C)NC(=O)C1=CCCN(C(=O)OC(C)(C)C)C1
